How the values were obtained:
[1] = molecular target: T1, serotonine transporter (SERT) receptor (Homo sapiens, UniProt P31645); assay: Binding assay SERT (h), [3H]imipramine, CHO cells; details: read-out: SERT [%]
T1 construct: expressed in transfected cells; host or cells: CHO cells
Summary of the method: (§1)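 Specific ligand binding was taken as total minus non-specific binding, with the latter defined in the presence of surplus unlabelled ligand. Each compound was tested at a single 1×10^−6 M concentration.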

[2] = tested on: adrenergic α1 receptor; assay: Binding assay α1 (non-selective), [3H]prazosin, rat cerebral cortex; details: percent inhibition of control specific binding; compounds tested at 1×10^−6 M
Summary of the method: as §1

[3] = molecular target: dopaminergic D3 receptor (Homo sapiens, UniProt P35462); assay: Binding assay D3 (h), [3H]methyl-spiperone, CHO cells; parameters: expressed in transfected cells; host or cells: CHO cells; details: read-out: D3 [%]
Summary of the method: as §1

[4] = molecular target: serotoninergic 5-HT6 receptor (Homo sapiens, UniProt P50406); assay: Binding assay 5-HT6 (h), [3H]LSD, CHO cells; parameters: expressed in transfected cells; host or cells: CHO cells; details: read-out: 5-HT6
Summary of the method: as §1

[5] = molecular target: serotoninergic 5-HT7 receptor (Homo sapiens, UniProt P34969); assay: Binding assay 5-HT7 (h), [3H]LSD, CHO cells; parameters: expressed in transfected cells; host or cells: CHO cells; details: read-out: 5-HT7
Summary of the method: as §1

[6] = molecular target: dopaminergic D2 receptor (Homo sapiens, UniProt P14416); assay: Binding assay D2S (h), [3H]methyl-spiperone, HEK-293 cells; parameters: expressed in transfected cells; host or cells: HEK-293 cells; details: read-out: D2 [%]
Summary of the method: as §1

[7] = molecular target: T2, serotoninergic 5-HT1A receptor (Homo sapiens, UniProt P08908); assay: Binding assay 5-HT1A (h), [3H]8-OH-DPAT, HEK-293 cells; parameters: expressed in transfected cells; host or cells: HEK-293 cells; details: read-out: 5-HT1A
T2 sequence (P08908 1-422): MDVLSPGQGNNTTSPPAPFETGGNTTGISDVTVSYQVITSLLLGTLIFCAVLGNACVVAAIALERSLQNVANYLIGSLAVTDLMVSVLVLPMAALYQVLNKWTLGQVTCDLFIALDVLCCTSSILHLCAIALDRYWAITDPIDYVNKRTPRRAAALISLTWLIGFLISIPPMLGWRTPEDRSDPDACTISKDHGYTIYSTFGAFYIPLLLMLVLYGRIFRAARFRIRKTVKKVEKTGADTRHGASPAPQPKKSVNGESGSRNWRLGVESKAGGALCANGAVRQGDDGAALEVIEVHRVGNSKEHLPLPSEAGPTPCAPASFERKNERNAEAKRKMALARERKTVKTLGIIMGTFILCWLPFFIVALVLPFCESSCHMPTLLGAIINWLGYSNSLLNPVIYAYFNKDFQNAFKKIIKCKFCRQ
Summary of the method: as §1

[8] = molecular target: serotoninergic 5-HT2A receptor (Homo sapiens, UniProt P28223); assay: Binding assay 5-HT2A (h), [3H]ketanserin, HEK-293 cells; parameters: expressed in transfected cells; host or cells: HEK-293 cells; details: read-out: 5-HT2A
Summary of the method: as §1

Chain of dopaminergic D2 receptor (P14416 1-414 isoform P14416-2): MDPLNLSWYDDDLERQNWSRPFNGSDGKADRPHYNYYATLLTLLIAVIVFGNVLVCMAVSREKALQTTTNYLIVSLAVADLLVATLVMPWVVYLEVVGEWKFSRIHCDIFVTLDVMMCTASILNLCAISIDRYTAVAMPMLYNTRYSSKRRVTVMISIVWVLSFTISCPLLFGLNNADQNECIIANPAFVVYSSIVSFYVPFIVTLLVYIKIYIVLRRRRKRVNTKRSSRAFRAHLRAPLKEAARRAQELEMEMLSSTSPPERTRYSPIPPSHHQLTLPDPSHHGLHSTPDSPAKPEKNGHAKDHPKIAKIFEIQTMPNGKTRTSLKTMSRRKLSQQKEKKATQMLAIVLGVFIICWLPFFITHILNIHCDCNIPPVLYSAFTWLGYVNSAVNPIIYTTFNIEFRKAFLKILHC
Chain of serotoninergic 5-HT2A receptor (P28223 whole entry): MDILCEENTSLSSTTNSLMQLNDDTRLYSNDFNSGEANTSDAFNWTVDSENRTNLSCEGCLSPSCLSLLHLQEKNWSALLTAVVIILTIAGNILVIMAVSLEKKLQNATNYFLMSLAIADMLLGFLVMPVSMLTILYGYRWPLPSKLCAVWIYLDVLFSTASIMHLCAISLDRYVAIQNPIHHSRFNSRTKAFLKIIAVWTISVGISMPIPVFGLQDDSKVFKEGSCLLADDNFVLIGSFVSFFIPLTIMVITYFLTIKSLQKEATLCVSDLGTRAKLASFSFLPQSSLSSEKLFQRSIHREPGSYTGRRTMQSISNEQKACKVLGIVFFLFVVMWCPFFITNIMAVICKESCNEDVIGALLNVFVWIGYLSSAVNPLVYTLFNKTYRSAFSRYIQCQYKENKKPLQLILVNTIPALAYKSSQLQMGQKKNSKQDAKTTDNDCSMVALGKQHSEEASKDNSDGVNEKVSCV
Chain of serotoninergic 5-HT6 receptor (P50406 whole entry): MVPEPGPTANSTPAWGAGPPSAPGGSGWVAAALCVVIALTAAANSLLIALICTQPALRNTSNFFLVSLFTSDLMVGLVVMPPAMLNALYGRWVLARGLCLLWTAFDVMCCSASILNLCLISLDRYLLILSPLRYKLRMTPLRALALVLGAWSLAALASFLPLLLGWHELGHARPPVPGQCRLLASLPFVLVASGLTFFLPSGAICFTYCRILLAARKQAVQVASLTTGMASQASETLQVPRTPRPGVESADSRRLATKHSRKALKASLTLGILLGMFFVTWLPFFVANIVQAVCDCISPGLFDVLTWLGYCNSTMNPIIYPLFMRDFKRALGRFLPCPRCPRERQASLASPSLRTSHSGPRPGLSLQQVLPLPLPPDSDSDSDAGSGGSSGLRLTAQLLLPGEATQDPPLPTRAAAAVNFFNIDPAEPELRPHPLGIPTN
T1 sequence (P31645 whole entry): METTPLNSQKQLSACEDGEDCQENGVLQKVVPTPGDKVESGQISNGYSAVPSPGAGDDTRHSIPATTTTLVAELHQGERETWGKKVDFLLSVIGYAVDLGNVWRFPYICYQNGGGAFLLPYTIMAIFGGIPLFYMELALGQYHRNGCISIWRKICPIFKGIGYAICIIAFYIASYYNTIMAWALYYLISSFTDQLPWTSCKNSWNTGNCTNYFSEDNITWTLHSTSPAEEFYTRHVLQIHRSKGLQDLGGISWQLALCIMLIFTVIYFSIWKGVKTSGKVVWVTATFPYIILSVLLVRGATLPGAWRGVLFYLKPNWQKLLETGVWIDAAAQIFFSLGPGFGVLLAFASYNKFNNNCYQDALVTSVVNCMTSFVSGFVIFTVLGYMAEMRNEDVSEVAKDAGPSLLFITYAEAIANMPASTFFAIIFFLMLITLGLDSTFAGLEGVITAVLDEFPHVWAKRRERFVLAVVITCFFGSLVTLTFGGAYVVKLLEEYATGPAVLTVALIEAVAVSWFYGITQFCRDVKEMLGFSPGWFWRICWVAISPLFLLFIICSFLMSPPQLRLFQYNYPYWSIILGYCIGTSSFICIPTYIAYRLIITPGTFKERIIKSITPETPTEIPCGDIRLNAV
Chain of serotoninergic 5-HT7 receptor (P34969 whole entry): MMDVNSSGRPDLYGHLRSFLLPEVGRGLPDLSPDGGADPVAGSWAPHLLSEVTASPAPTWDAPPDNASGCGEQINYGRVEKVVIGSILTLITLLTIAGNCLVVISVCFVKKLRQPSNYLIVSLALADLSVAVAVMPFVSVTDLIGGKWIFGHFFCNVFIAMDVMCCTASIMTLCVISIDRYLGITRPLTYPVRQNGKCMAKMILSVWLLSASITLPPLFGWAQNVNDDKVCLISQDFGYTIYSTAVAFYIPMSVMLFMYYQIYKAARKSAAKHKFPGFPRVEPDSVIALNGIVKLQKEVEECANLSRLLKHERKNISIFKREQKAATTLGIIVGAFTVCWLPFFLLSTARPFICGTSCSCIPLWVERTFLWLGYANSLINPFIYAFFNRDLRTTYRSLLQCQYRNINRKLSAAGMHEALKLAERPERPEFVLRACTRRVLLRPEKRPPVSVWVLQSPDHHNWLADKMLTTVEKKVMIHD
Chain of dopaminergic D3 receptor (P35462 whole entry): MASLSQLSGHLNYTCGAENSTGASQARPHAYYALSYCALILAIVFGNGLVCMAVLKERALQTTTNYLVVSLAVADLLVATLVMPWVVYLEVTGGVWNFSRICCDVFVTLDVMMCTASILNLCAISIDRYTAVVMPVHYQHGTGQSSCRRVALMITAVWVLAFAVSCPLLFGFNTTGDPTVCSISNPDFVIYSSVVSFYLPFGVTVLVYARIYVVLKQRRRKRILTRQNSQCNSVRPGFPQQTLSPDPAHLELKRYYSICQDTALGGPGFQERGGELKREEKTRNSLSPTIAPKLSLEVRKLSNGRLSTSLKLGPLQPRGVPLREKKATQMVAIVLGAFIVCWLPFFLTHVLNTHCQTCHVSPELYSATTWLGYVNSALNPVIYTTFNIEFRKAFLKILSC

Compound | inhibition at 1 µM [1] [%] | α1 [%] [2] [%] | inhibition at 1 µM [3] [%] | inhibition at 1 µM [4] [%] | inhibition at 1 µM [5] [%] | inhibition at 1 µM [6] [%] | inhibition at 1 µM [7] [%] | inhibition at 1 µM [8] [%]
O=S(=O)(NCCCCN1CCN(c2noc3ccccc23)CC1)c1ccc(Cl)cc1 [Compound 273, N-[4-[4-(1,2-Benzoxazol-3-yl)piperazin-1-yl]butyl]-4-chlorobenzenesulphonamide] | 22 | 101 | 85 | 74 | 97 | 88 | 46 | 95
O=S(=O)(NCCCCN1CCN(c2noc3ccccc23)CC1)c1ccc(Br)cc1 [Compound 274, N-[4-[4-(1,2-Benzoxazol-3-yl)piperazin-1-yl]butyl]-4-bromobenzenesulphonamide] | 30 | 99 | 91 | 81 | 83 | 96 | 73 | 97
O=S(=O)(NCCCCN1CCN(c2noc3ccccc23)CC1)c1ccc(F)c(Cl)c1 [Compound 276, N-[4-[4-(1,2-Benzoxazol-3-yl)piperazin-1-yl]butyl]-3-chloro-4-fluorobenzenesulphonamide] | 3 | 95 | 69 | 78 | 87 | 95 | 51 | 87
N#Cc1cccc(S(=O)(=O)NCCCCN2CCN(c3noc4ccccc34)CC2)c1 [Compound 282, N-[4-[4-(1,2-Benzoxazol-3-yl)piperazin-1-yl]butyl]-3-cyanobenzenesulphonamide] | 12 | 102 | 87 | 64 | 98 | 97 | 50 | 78
O=S(=O)(NCCCCN1CCN(c2noc3ccccc23)CC1)c1ccc2c(c1)CCO2 [Compound 289, N-[4-[4-(1,2-Benzoxazol-3-yl)piperazin-1-yl]butyl]-2,3-dihydrobenzofuran-5-sulphonamide] | 9 | 100 | 79 | 78 | 91 | 99 | 68 | 94
O=S(=O)(NCCCCN1CCN(c2noc3ccccc23)CC1)c1ccc2cn[nH]c2c1 [Compound 291, N-[4-[4-(1,2-Benzoxazol-3-yl)piperazin-1-yl]butyl]-1H-indazole-6-sulphonamide] | 8 | 99 | 85 | 83 | 99 | 99 | 38 | 83
O=S(=O)(NCCCCN1CCN(c2noc3ccccc23)CC1)c1cnc2ccccn12 [Compound 293, N-[4-[4-(1,2-Benzoxazol-3-yl)piperazin-1-yl]butyl]imidazo[1,2-a]pyridine-3-sulphonamide] | 3 | 98 | 65 | 44 | 93 | 85 | 57 | 89
O=S(=O)(NCCCCN1CCC(c2noc3cc(F)ccc23)CC1)c1ccc(F)cc1 [Compound 294, 4-Fluoro-N-[4-[4-(6-fluoro-1,2-benzoxazol-3-yl)piperidin-1-yl]butyl]benzenesulphonamide] | -14 | 101 | 95 | 72 | 94 | 105 | 23 | 95
O=S(=O)(NCCCCN1CCC(c2noc3cc(F)ccc23)CC1)c1ccc(Cl)cc1 [Compound 296, 4-Chloro-N-[4-[4-(6-fluoro-1,2-benzoxazol-3-yl)piperidin-1-yl]butyl]benzenesulphonamide] | 49 | 101 | 100 | 83 | 91 | 105 | 34 | 93
O=S(=O)(NCCCCN1CCC(c2noc3cc(F)ccc23)CC1)c1ccc(Cl)c(Cl)c1 [Compound 297, 3,4-Dichloro-N-[4-[4-(6-fluoro-1,2-benzoxazol-3-yl)piperidin-1-yl]butyl]benzenesulphonamide] | 23 | 100 | 100 | 87 | 88 | 93 | 31 | 95
O=S(=O)(NCCCCN1CCC(c2noc3cc(F)ccc23)CC1)c1ccc(F)c(Cl)c1 [Compound 299, 3-Chloro-4-fluoro-N-[4-[4-(6-fluoro-1,2-benzoxazol-3-yl)piperidin-1-yl]butyl]benzenesulphonamide] | 14 | 98 | 98 | 84 | 75 | 87 | 45 | 89
O=S(=O)(NCCCCN1CCC(c2noc3cc(F)ccc23)CC1)c1ccc(C(F)(F)F)cc1 [Compound 302, N-[4-[4-(6-Fluoro-1,2-benzoxazol-3-yl)piperidin-1-yl]butyl]-4-(trifluoromethyl)benzenesulphonamide] | 19 | 100 | 99 | 72 | 101 | 90 | 50 | 95
O=S(=O)(NCCCCN1CCC(c2noc3cc(F)ccc23)CC1)c1cccc(C(F)(F)F)c1 [Compound 303, N-[4-[4-(6-Fluoro-1,2-benzoxazol-3-yl)piperidin-1-yl]butyl]-3-(trifluoromethyl)-benzenesulphonamide] | 9 | 97 | 97 | 90 | 98 | 108 | 35 | 96
O=S(=O)(NCCCCN1CCC(c2noc3cc(F)ccc23)CC1)c1ccc(OC(F)(F)F)cc1 [Compound 304, N-[4-[4-(6-Fluoro-1,2-benzoxazol-3-yl)piperidin-1-yl]butyl]-4-(trifluoromethoxy)-benzenesulphonamide] | 4 | 101 | 87 | 78 | 93 | 94 | 60 | 76
N#Cc1ccc(S(=O)(=O)NCCCCN2CCC(c3noc4cc(F)ccc34)CC2)cc1 [Compound 305, 4-Cyano-N-[4-[4-(6-fluoro-1,2-benzoxazol-3-yl)piperidin-1-yl]butyl]benzenesulphonamide] | -18 | 99 | 103 | 78 | 85 | 88 | 58 | 96
N#Cc1cccc(S(=O)(=O)NCCCCN2CCC(c3noc4cc(F)ccc34)CC2)c1 [Compound 306, 3-Cyano-N-[4-[4-(6-fluoro-1,2-benzoxazol-3-yl)piperidin-1-yl]butyl]benzenesulphonamide] | -10 | 99 | 99 | 81 | 89 | 106 | 44 | 97
O=S(=O)(NCCCCN1CCC(c2noc3cc(F)ccc23)CC1)c1ccsc1 [Compound 307, N-[4-[4-(6-Fluoro-1,2-benzoxazol-3-yl)piperidin-1-yl]butyl]thiophene-3-sulphonamide] | -3 | 105 | 95 | 76 | 85 | 88 | 73 | 99
